# Measured values published in publication PMC11694061 (Cancer Research, 2024).
# How the values were obtained:
# MIA PaCa-2 cells = experiment: Proliferation, MIA PaCa-2 (2D); type: cell-based; settings: Homo sapiens, MIA PaCa-2, 72 hours
# Protocol: (§1) Cells were inoculated onto 96-well plates and treated with compounds in serial dilutions for 3 or 5 days. […] The cell viability of primary patient samples was tested using the CellTiter-Glo Luminescent Assay kit (G7573, Promega) according to the manufacturer’s instructions. […] The optical density (OD) values were obtained using a SPARK microplate reader (Tecan). IC50 was calculated using GraphPad Prism 8.0.2 (nonlinear regression analysis with four parameters). Drug synergy was evaluated with combination index (CI) values using CalcuSyn Demo Version 2.0 software. CI > 1 indicates antagonism, CI < 1 indicates synergy, and CI = 1 indicates additivity.
# MIA PaCa-2/R cells = experiment: Proliferation, MIA PaCa-2/R (2D); type: cell-based; settings: Homo sapiens, MIA PaCa-2/R (AMG510-resistant), 72 hours
# Protocol: as §1
# SW620 cells (G12V) = experiment: 3D growth inhibition, SW620; type: cell-based; settings: Homo sapiens, SW-620, 120 h, read-out: IC50 (3D culture), SW620
# Protocol: (§2) Cells were inoculated onto 96-well plates and treated with compounds in serial dilutions for 3 or 5 days. Cell viability was assessed using sulforhodamine B (230162, Sigma-Aldrich) assay and methyl thiazolyl tetrazolium (M5655, Sigma-Aldrich) assay for adherent and suspended cells, respectively, in accordance with previously described methods ([48]). The cell viability of primary patient samples was tested using the CellTiter-Glo Luminescent Assay kit (G7573, Promega) according to the manufacturer’s instructions. Three-dimensional cultivation was conducted in 96-well ultralow attachment plates (7007, Corning). The optical density (OD) values were obtained using a SPARK microplate reader (Tecan). IC50 was calculated using GraphPad Prism 8.0.2 (nonlinear regression analysis with four parameters). Drug synergy was evaluated with combination index (CI) values using CalcuSyn Demo Version 2.0 software. CI > 1 indicates antagonism, CI < 1 indicates synergy, and CI = 1 indicates additivity.
# K562 cells = experiment: Proliferation, K562; type: cell-based, human; settings: Homo sapiens, K562, read-out: IC50 (cell proliferation inhibition in K562 cells)
# Protocol: as §1
# GP2d cells (KRAS^G12D) = experiment: 3D growth inhibition, GP2d; type: cell-based; settings: Homo sapiens, 120 h, read-out: IC50 (3D culture), GP2d
# Protocol: as §2
# BxPC-3 cells (KRAS-WT) = experiment: 3D growth inhibition, BxPC-3; type: cell-based; settings: Homo sapiens, BXPC-3, 120 h, read-out: IC50 (3D culture), BxPC-3
# Protocol: as §2
# 293T cells (KRAS-WT) = experiment: 3D growth inhibition, 293T; type: cell-based; settings: Homo sapiens, HEK-293T, 120 h, read-out: IC50 (3D culture), 293T
# Protocol: as §2
# [1] = tested on: NCI-H358 cells (KRAS^G12C); experiment: 3D growth inhibition, NCI-H358; type: cell-based; settings: Homo sapiens, NCI-H358, 120 h, read-out: IC50 (3D culture), NCI-H358
# Protocol: as §2
# [2] = tested on: MIA PaCa-2 xenografts (KRAS^G12C); experiment: MIA PaCa-2 xenograft; type: in vivo, mouse; settings: BI-3406 50 mg/kg twice daily, end of 24-day period
# Protocol: (§3) Animal experiments were carried out following the guidelines of the Institutional Animal Care and Use Committee of Shanghai Institute of Materia Medica, Chinese Academy of Sciences, and Lingang Laboratory. […] All mice were raised till the tumor volumes reached approximately 100 mm^3 and were randomly assigned to either the vehicle or treated groups (n = 5/group). […] Body weights and tumor sizes of mice were recorded every 3 days. Tumor volumes were calculated as follows: ½ × length × width^2. On the final day of the experiment, the mice were euthanized and tumor samples were prepared for Western blot analysis.
# [3] = tested on: HPAF-II cells (KRAS^G12D); experiment: 3D growth inhibition, HPAF-II; type: cell-based; settings: Homo sapiens, 120 h, read-out: IC50 (3D culture), HPAF-II
# Protocol: as §2
# K562 xenografts = experiment: K562 xenograft; type: in vivo; settings: imatinib (100 mg/kg) monotherapy, orally daily
# Protocol: as §3
structure (smiles),measurement,setting,value
"C=CC(=O)N1CCN(c2nc(=O)n(-c3c(C)ccnc3C(C)C)c3nc(-c4c(O)cccc4F)c(F)cc23)[C@@H](C)C1 [AMG510, sotorasib]",IC50,MIA PaCa-2 cells,25 nM
same,IC50,MIA PaCa-2/R cells,590000 nM
COc1cc2nc(C)nc(N[C@H](C)c3cc(N)cc(C(F)(F)F)c3)c2cc1O[C@H]1CCOC1 [BI-3406],IC50,SW620 cells (G12V),18 nM
same,IC50,K562 cells,199 ± 32 nM
same,IC50,GP2d cells (KRAS^G12D),4.1 nM
same,IC50,BxPC-3 cells (KRAS-WT),692 nM
same,IC50,293T cells (KRAS-WT),> 10000 nM
same,IC50,[1],11 nM
same,tumor growth inhibition,[2],62.0%
same,IC50,[3],61.9 nM
Cc1ccc(NC(=O)c2ccc(CN3CCN(C)CC3)cc2)cc1Nc1nccc(-c2cccnc2)n1 [imatinib],TGI,K562 xenografts,50.9%
